Reference: PMC4865847, “Putative histidine kinase inhibitors with antibacterial effect against multi-drug resistant clinical isolates identified by in vitro and in silico screens” (Scientific Reports, 2016)
In brackets after ≈: the same amount, converted by molar mass. Read-outs that look alike come from different tables or passages of the source.

What was measured:
[1] = molecular target: T1, S. aureus PhoR (PhoR^S) (Staphylococcus aureus, UniProt Q2FXN7); assay: In vitro autophosphorylation kinase assay with γ-32P-ATP, PhoR^S; format: biochemical
Method in brief: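 ≈4 μM HK incubated with up to 20 mM fragment in 50 mM Tris HCl pH 8.5, 50 mM KCl, 5 mM MgCl2, 0.5 mM EDTA, 0.1 mM DTT; started with γ-32P-ATP (0.03–0.06 μM ATP final). Quenched with SDS sample buffer/EDTA, run on SDS-PAGE unheated, phosphoprotein quantified by phosphor-imaging.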

[2] = test system: Staphylococcus aureus; assay: Antibacterial susceptibility testing (MIC/MBC), S. aureus; format: cell-based
Protocol: (§1) Minimal inhibitory concentrations (MICs) were determined following a standard double-dilution method. […] For S. pneumoniae MICs were determined by adapting the standard double-dilution method to anaerobic conditions and of this microorganism (use of Todd Hewitt Yeast extract with 200 U/mL of catalase and continuous monitoring of growth).

[3] = test system: Staphylococcus epidermidis; assay: Antibacterial susceptibility testing (MIC/MBC), S. epidermidis; format: cell-based
Protocol: as §1

[4] = test system: Streptococcus suis; assay: Antibacterial susceptibility testing (MIC), S. suis; format: cell-based; conditions: Streptococcus suis, read-out: MIC Streptococcus suis 3881/S10, strain 3881/S10
Method in brief: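 Broth double-dilution MICs, read as lowest concentration with no visible growth; MBC taken by plating dilutions around the MIC or regrowing them in fresh MH medium. S. pneumoniae run anaerobically in Todd Hewitt yeast extract with 200 U/mL catalase, growth monitored continuously.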

[5] = test system: Streptococcus pneumoniae; assay: Antibacterial susceptibility testing (MIC), S. pneumoniae; format: cell-based; conditions: strain 49619
Protocol: Bacterial strains used in this study for antibacterial susceptibility testing (Table S5) were propagated using standard microbiological procedures. Minimal inhibitory concentrations (MICs) were determined following a standard double-dilution method. MICs were recorded as the lowest concentration of the compound where no visible growth was observed. After plating the dilutions around the MIC or growing them in fresh MH media, minimal bactericidal concentration (MBC) was recorded as the lowest concentration of the compound at which no colonies were formed or no growth was observed, respectively. For S. pneumoniae MICs were determined by adapting the standard double-dilution method to anaerobic conditions and of this microorganism (use of Todd Hewitt Yeast extract with 200 U/mL of catalase and continuous monitoring of growth).

[6] = test system: Acinetobacter baumannii; assay: Antibacterial susceptibility testing (MIC), A. baumannii; format: cell-based
Method in brief: (§2)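 MICs were determined by standard double (two-fold) dilution and read as the lowest compound concentration with no visible growth. MBC was the lowest concentration giving no colonies on plating, or no growth on regrowth in fresh MH medium. For S. pneumoniae the method was adapted to anaerobic conditions in Todd Hewitt yeast extract with 200 U/mL catalase, with growth monitored continuously.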

[7] = test system: Stenotrophomonas maltophilia; assay: Antibacterial susceptibility testing (MIC), S. maltophilia; format: cell-based
Method in brief: as §2

[8] = test system: Klebsiella pneumoniae; assay: Antibacterial susceptibility testing (MIC), K. pneumoniae; format: cell-based
Method in brief: as §2

[9] = test system: Pseudomonas aeruginosa; assay: Antibacterial susceptibility testing (MIC), P. aeruginosa; format: cell-based; conditions: strain ATCC 27853
Method in brief: as §2

[10] = Hemolysis assay; format: cell-based; conditions: human
Protocol: Hemolytic activity against human erythrocytes taken from a healthy donor was measured as previously described. The hemolysis experiments were carried out in accordance with the guidelines of the United Arab Emirates University (UAEU) Research Ethics Review Board. All experimental protocols were approved by the Research Ethics Review Board of UAEU and informed consent was obtained from all donors.

[11] = molecular target: T2, E. coli PhoR (PhoR^E) (Escherichia coli, UniProt P08400); assay: Aggregation analysis by native-PAGE, PhoR^E; conditions: 2 mM (S5 and S6 5 mM), 10% DMSO
T2 construct: The catalytic portion (DHp and CA domain) of E. coli PhoR (PhoR^E); made in house; host or cells: E. coli RIL
Protocol: (§3) E. coli PhoR and EnvZ, and S. aureus PhoR ([…], final concentration) were prepared in kinase buffer. […] DMSO in the assays was maintained to a final concentration 10% (v/v). After 30 min of incubation at room temperature Native polyacrylamide gel electrophoresis (Native-PAGE) loading buffer was added and samples loaded. Coomassie blue staining was used for protein visualization.

[12] = molecular target: T1, S. aureus PhoR (PhoR^S); assay: Aggregation analysis by native-PAGE, PhoR^S; conditions: 2 mM (S5 and S6 5 mM), 10% DMSO
Protocol: as §3

[13] = Solubility in kinase buffer; format: physicochemical; conditions: kinase buffer in the presence of 10% DMSO

T1 sequence (Q2FXN7 entry or part of it): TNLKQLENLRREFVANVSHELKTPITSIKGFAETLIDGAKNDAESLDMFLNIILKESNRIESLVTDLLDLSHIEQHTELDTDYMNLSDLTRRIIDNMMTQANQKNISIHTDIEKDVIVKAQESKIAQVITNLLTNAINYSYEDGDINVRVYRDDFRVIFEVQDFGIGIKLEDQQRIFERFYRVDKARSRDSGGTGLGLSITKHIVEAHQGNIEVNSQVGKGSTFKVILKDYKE
T2 sequence (P08400 210-425): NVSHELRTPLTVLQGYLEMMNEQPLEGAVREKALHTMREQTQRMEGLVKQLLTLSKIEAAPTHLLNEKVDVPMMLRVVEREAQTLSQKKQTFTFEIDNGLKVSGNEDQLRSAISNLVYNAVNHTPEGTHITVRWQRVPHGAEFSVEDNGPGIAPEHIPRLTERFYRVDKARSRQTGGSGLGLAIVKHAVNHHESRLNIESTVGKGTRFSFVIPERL

`CC[C@H](c1ccc(O)cc1)[C@@H](CC)c1ccc(F)cc1` [S1.13, 4-[(3S,4R)-4-(4-fluorophenyl)hexan-3-yl]phenol] gave an IC50 ([1]; IC50 PhoR^S, autophosphorylation, one time point (30 sec), 10% DMSO) of 212 µM, an inhibition at 2000 µM ([1]; read-out: inhibition of PhoR^S autophosphorylation) of over 75% and an MIC ([2]; Staphylococcus aureus, ATCC reference strain 25293, read-out: MIC S. aureus 25293) of 8 mg/L (≈ 29.4 µM). The MBC ([2]; Staphylococcus aureus, DSM20231, strain DSM 20231, read-out: MBC S. aureus DSM 20231) was 33 mg/L (≈ 121 µM), the MIC ([2]; Staphylococcus aureus, DSM20231, strain DSM 20231, read-out: MIC S. aureus DSM 20231) was 8 mg/L (≈ 29.4 µM) and the MIC ([2]; Staphylococcus aureus, MRSA clinical isolate 127/08, read-out: MIC S. aureus 127/08) was 16 mg/L (≈ 58.7 µM). The MIC ([2]; Staphylococcus aureus, MRSA clinical isolate 145/08, read-out: MIC S. aureus 145/08) was 8 mg/L (≈ 29.4 µM), the MIC ([2]; Staphylococcus aureus, MRSA clinical isolate 274/08, read-out: MIC S. aureus 274/08) was 16 mg/L (≈ 58.7 µM) and the MIC ([2]; Staphylococcus aureus, MRSA, MRSA clinical isolate S908, read-out: MIC S. aureus S908) was 16 mg/L (≈ 58.7 µM). The MIC ([2]; Staphylococcus aureus, MRSA, MRSA clinical isolate T4/6, read-out: MIC S. aureus T4/6) was 8 mg/L (≈ 29.4 µM), the MIC ([2]; Staphylococcus aureus, MRSA, MRSA clinical isolate V4180, read-out: MIC S. aureus V4180) was 8 mg/L (≈ 29.4 µM) and the MIC ([2]; Staphylococcus aureus, MRSA, summary over strains, read-out: MICs for the S. aureus reference strains and the MRSA strains) was 8 to 16 mg/L (≈ 29.4 to 58.7 µM). For the same compound, the MIC ([2]; Staphylococcus aureus, MRSA, summary over susceptible MRSA clinical isolates, read-out: MICs for MRSA strains) was 8 to 16 mg/L (≈ 29.4 to 58.7 µM), the “MBC S. aureus DSM 20231” value ([2]; strain DSM 20231) was 31 mg/L (≈ 114 µM) and the “MIC S. aureus DSM 20231” value ([2]; strain DSM 20231) was 8^¥ μg/ml. The “bacteriostatic or bactericidal for S. aureus DSM 20231” value ([2]; strain DSM 20231) was “bactericidal”, the MBC ([3]; Staphylococcus epidermidis, DSM20044, strain DSM 20044) was 8 mg/L (≈ 29.4 µM) and the MIC ([3]; Staphylococcus epidermidis, DSM20044, strain DSM 20044, read-out: MIC S. epidermidis DSM 20044) was 1 mg/L (≈ 3.67 µM). For the same compound, the MIC ([3]; Staphylococcus epidermidis, clinical isolate T7/3, read-out: MIC S. epidermidis T7/3) was 8 mg/L (≈ 29.4 µM), the MIC ([3]; Staphylococcus epidermidis, clinical isolate T37/8, read-out: MIC S. epidermidis T37/8) was 16 mg/L (≈ 58.7 µM) and the MIC ([3]; Staphylococcus epidermidis, clinical isolate T6119, read-out: MIC S. epidermidis T6119) was 8 mg/L (≈ 29.4 µM). It also gave an MIC ([3]; Staphylococcus epidermidis, strain RP62A (biofilm producer), read-out: MIC S. epidermidis RP62A) of 8 mg/L (≈ 29.4 µM), an MIC ([3]; Staphylococcus epidermidis, strain RP62A/1 (non-biofilm producer), read-out: MIC S. epidermidis RP62A/1) of 8 mg/L (≈ 29.4 µM) and an MIC ([3]; Staphylococcus epidermidis, summary over clinical isolates, read-out: MICs for S. epidermidis clinical isolates) of 8 to 16 mg/L (≈ 29.4 to 58.7 µM). The “MIC S. epidermidis DSM 20044” value ([3]; strain DSM 20044) was 1^¥ μg/ml, the “bacteriostatic or bactericidal for S. epidermidis DSM 20044” value ([3]; strain DSM 20044) was “bactericidal” and the MIC [4] was 8 mg/L (≈ 29.4 µM). It also gave an MIC [5] of 16 mg/L (≈ 58.7 µM), an MIC ([6]; MDR clinical isolate NM8, read-out: MIC A. baumannii NM8) of over 500 mg/L and an MIC ([6]; MDR clinical isolate NM35, read-out: MIC A. baumannii NM35) of over 500 mg/L. For the same compound, the MIC ([6]; MDR clinical isolate NM75, read-out: MIC A. baumannii NM75) was over 500 mg/L, the MIC ([6]; MDR clinical isolate NM109, read-out: MIC A. baumannii NM109) was over 500 mg/L and the MIC ([6]; MDR clinical isolate NM124, read-out: MIC A. baumannii NM124) was over 500 mg/L. For the same compound, the MIC ([7]; clinical isolate B5/5, read-out: MIC S. maltophilia B5/5) was over 500 mg/L, the MIC ([7]; clinical isolate B6/2, read-out: MIC S. maltophilia B6/2) was over 500 mg/L and the MIC ([7]; clinical isolate B32/1, read-out: MIC S. maltophilia B32/1) was over 500 mg/L. For the same compound, the MIC ([8]; Klebsiella pneumoniae, ATCC700603, strain ATCC 700603) was over 500 mg/L, the “MIC K. pneumoniae ATCC700603” value ([8]; strain ATCC 700603) was over 500 mg/L and the MIC ([9]; Pseudomonas aeruginosa, ATCC27853) was over 500 mg/L. For the same compound, the “MIC P. aeruginosa ATCC 27853” value [9] was over 500 mg/L, the HC50 [10] was 277 µg/mL and the “HK aggregation, PhoR^E” value [11] was “do not cause HK aggregation”. For the same compound, the “HK aggregation, PhoR^S” value [12] was “do not cause HK aggregation” and the “solubility in kinase buffer” value [13] was “good solubility”.
